According to ChEMBL document CHEMBL2331203, “Optimization of inhibitors of the tyrosine kinase EphB4. 2. Cellular potency improvement and binding mode validation by X-ray crystallography” (J Med Chem, 2013):

Tests used:
[1] = Cytotoxicity against human LXFA 983L cells after 4 days by propidium iodide staining; conditions: 96 h
[2] = Cytotoxicity against human GXF251L cells after 4 days by propidium iodide staining; conditions: GXF 251L, 96 h
[3] = target: T1, Ephrin type-B receptor 3 (Homo sapiens) (UniProt P54753); test: Inhibition of human Eph-B3 using [gamma-33P]ATP assessed as residual activity at 3 uM after 30 mins by radiometric assay
T1 sequence (whole entry): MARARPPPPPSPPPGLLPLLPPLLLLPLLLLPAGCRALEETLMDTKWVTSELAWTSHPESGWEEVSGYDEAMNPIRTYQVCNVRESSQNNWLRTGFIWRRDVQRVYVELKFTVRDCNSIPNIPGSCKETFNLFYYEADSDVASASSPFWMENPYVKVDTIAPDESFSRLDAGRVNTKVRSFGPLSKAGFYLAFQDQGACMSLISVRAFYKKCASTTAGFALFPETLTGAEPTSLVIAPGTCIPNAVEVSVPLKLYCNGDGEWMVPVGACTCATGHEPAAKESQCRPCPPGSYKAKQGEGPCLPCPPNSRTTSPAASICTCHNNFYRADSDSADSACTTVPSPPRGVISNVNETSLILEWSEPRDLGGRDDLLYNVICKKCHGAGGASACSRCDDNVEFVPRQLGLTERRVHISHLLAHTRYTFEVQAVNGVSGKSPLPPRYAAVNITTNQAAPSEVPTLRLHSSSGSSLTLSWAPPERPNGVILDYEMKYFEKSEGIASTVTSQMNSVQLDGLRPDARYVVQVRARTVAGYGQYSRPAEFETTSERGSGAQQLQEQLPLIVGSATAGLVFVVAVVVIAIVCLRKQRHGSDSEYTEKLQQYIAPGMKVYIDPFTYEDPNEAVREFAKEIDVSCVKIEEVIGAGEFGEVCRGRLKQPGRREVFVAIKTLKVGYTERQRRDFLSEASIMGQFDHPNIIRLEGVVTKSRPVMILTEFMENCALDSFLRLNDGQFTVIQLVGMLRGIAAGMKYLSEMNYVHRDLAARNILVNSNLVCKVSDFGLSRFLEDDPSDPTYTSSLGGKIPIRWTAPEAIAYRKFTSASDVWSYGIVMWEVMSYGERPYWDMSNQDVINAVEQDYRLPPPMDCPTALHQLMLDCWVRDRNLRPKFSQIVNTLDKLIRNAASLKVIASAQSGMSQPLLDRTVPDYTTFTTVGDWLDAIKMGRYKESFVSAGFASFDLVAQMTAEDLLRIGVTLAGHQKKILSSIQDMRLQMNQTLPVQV

[4] = target: T2, Ephrin type-B receptor 2 (Homo sapiens) (UniProt P29323); test: Inhibition of human Eph-B2 using [gamma-33P]ATP assessed as residual activity at 3 uM after 30 mins by radiometric assay
T2 sequence (whole entry): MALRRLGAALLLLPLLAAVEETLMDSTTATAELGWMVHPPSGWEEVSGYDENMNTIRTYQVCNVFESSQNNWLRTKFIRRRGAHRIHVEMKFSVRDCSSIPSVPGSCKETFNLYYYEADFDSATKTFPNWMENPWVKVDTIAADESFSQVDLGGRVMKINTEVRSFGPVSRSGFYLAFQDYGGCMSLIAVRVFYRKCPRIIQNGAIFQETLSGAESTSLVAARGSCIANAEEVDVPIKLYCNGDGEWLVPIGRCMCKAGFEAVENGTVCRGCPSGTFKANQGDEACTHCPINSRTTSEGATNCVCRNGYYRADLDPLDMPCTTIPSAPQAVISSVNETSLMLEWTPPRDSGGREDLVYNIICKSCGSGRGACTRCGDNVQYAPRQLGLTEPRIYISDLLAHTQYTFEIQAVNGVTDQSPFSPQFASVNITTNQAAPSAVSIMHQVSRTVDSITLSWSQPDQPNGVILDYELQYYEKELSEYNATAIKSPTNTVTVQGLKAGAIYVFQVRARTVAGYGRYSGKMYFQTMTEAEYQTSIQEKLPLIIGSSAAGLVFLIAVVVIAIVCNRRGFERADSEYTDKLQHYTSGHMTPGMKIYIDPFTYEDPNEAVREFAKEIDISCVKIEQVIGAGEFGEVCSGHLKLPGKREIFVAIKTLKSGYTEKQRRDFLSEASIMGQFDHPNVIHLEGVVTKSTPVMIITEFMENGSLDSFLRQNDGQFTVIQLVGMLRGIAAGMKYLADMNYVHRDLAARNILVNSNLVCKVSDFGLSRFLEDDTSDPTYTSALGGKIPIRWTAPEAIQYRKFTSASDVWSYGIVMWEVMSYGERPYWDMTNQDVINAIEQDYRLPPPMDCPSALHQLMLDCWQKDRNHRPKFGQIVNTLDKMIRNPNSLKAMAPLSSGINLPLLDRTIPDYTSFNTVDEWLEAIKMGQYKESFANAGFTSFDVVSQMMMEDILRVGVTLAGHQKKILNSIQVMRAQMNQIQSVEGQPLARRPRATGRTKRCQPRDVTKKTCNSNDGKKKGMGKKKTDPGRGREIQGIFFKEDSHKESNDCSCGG

[5] = target: Tyrosine-protein kinase Yes (Homo sapiens, UniProt P07947); test: Inhibition of Yes1 (unknown origin) using [gamma-33P]ATP after 30 mins by radiometric assay
[6] = Apparent permeability from apical to basolateral side in human Caco2 cells after 2 hrs by LC-MS/MS analysis; type: ADME, cell-based; conditions: Caco-2
[7] = Permeability from apical to basolateral side in human Caco2 cells assessed as compound recovery after 2 hrs by LC-MS/MS analysis; type: ADME, cell-based; conditions: Caco-2, read-out: permeability
[8] = target: Tyrosine-protein kinase ABL1 (Homo sapiens, UniProt P00519)
Chain of Tyrosine-protein kinase ABL1 (P00519 whole entry): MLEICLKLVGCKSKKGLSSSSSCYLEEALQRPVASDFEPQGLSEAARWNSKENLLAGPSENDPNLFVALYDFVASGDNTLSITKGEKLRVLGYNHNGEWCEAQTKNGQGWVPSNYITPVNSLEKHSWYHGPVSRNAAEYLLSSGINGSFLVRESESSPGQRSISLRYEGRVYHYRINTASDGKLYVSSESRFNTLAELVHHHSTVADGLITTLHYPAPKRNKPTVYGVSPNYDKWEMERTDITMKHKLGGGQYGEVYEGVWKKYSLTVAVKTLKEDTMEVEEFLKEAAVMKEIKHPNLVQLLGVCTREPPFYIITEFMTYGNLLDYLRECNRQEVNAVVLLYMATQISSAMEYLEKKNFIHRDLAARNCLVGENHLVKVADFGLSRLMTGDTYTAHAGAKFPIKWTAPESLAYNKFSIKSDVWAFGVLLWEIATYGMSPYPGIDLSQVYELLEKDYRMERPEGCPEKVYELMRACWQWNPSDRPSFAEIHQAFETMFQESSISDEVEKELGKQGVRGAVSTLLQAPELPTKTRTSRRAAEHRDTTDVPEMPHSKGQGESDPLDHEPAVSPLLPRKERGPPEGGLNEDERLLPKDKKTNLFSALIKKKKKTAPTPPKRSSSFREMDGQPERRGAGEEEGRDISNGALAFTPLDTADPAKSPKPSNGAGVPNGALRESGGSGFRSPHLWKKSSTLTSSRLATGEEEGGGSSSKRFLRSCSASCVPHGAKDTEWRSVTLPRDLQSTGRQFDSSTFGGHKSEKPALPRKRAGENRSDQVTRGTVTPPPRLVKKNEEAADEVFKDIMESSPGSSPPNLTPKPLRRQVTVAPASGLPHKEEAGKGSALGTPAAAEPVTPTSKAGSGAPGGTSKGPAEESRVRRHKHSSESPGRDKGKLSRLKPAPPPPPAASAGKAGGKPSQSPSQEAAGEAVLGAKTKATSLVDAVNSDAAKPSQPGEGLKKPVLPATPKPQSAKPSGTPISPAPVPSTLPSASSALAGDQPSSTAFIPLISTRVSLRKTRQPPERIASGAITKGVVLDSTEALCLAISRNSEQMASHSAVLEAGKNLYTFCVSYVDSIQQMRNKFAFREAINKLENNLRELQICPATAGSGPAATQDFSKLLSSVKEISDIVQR
Description: Inhibition of Abl (unknown origin) using [gamma-33P]ATP after 30 mins by radiometric assay

Chain of Tyrosine-protein kinase Yes (P07947 whole entry): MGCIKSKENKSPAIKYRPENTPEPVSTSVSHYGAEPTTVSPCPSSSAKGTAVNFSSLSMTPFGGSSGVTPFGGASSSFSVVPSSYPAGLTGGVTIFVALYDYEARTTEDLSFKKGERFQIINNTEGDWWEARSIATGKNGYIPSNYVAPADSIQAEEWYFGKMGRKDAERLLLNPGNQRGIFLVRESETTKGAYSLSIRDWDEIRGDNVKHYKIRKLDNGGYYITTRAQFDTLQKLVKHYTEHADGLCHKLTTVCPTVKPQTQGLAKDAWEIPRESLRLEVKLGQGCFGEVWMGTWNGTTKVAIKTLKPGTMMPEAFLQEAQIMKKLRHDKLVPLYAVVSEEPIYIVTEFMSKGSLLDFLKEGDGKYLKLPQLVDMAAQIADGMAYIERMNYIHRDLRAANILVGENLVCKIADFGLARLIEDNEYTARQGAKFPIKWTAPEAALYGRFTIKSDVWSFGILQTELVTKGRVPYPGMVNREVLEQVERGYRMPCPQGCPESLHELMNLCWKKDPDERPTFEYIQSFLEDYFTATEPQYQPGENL

Activity [3]: 13%
Activity [4]: 8%
IC50 [5]: 0.284 µM
Papp A→B at 2 h [6]: 42.7 ×10⁻⁶ cm/s
recovery at 2 h [7]: 85%
IC50 [8]: 0.578 µM
SMILES: CCCCn1c(-c2ccccc2C)cn2c3c(=O)[nH]c(=O)n(C)c3nc12
IC50 [1]: 5.45 µM
IC50 [2]: 14.6 µM
